Experimental data from patent US11026943B2, “Aminoquinoline derivatives and uses thereof” (UNIVERSITY OF DELHI, priority 2012, dated 2021).
Read-outs that look alike come from different tables or passages of the source. Blank lines part the entries; values can stand above or below the molecule they belong to.

Experiments:
[1] = system: CQ-sensitive (D6 clone) strain of P. falciparum; assay: In vitro antimalarial activity, CQ-sensitive strain; format: cell-based, Plasmodium falciparum; conditions: for IC50: Plasmodium falciparum; for P. falciparum (D6 Clone) S.I.: selectivity index = IC50 cytotoxicity to Vero cells / IC50 antimalarial
Text: (§1) Med. Chem. 2005, 13, 4458; Khan, I. A. Lipids 2004, 37, 169].

[2] = system: CQ-resistant (W2 clone) strain of P. falciparum; assay: In vitro antimalarial activity, CQ-resistant strain; format: cell-based, Plasmodium falciparum; conditions: for IC50: Plasmodium falciparum; for P. falciparum (W2 Clone) S.I.: selectivity index = IC50 cytotoxicity to Vero cells / IC50 antimalarial
Text: as §1

VERO cells = assay: In vitro cytotoxicity to mammalian cells, VERO; format: cell-based; conditions: Chlorocebus sabaeus, Vero; in vitro cytotoxicity to mammalian cells
Text: as §1

LLC-PK-1 cells = assay: In vitro cytotoxicity to mammalian cells, LLC-PK-1; format: cell-based; conditions: Sus scrofa, LLC-PK1
Text: as §1

HepG2 cells = assay: In vitro cytotoxicity to mammalian cells, HepG2; format: cell-based; conditions: Homo sapiens
Text: as §1

parasitemia = assay: In-vivo antimalarial activity in mice
[3] = Solubility (solvent listed in compound tables); format: physicochemical; conditions: solvent named, Table 3
[4] = CQ-sensitive D6 clone, read-out: P. falciparum (D6 Clone) IC50
[5] = CQ-resistant W2 clone, read-out: P. falciparum (W2 Clone) IC50
[6] = mice, PO, 100 mg/kg × 3 days post-infection

IC50 [1, 4]: 0.21 µM
IC50 [2, 5]: 0.34 µM
SMILES: Cc1cc(NCCNc2ccnc3cc(Cl)ccc23)nc(Cl)n1 [10a]
P. falciparum (D6 Clone) S.I. [1]: (>285)
P. falciparum (W2 Clone) S.I. [2]: (>176)
IC50 (VERO cells): > 60 µM
IC50 (LLC-PK-1 cells): > 60 µM
IC50 (HepG2 cells): > 60 µM

IC50 [1, 4]: 0.35 µM
IC50 [2, 5]: 0.74 µM
SMILES: Cc1cc(NCCCNc2ccnc3cc(Cl)ccc23)nc(Cl)n1 [10b]
P. falciparum (D6 Clone) S.I. [1]: (>170)
P. falciparum (W2 Clone) S.I. [2]: (>80)
IC50 (VERO cells): > 60 µM
IC50 (LLC-PK-1 cells): > 60 µM
IC50 (HepG2 cells): > 60 µM

IC50 [1, 4]: 0.151 µM
IC50 [2, 5]: 0.69 µM
SMILES: Cc1cc(NCCCCNc2ccnc3cc(Cl)ccc23)nc(Cl)n1 [10c]
P. falciparum (D6 Clone) S.I. [1]: (>398)
P. falciparum (W2 Clone) S.I. [2]: (>87)
IC50 (VERO cells): > 60 µM
IC50 (LLC-PK-1 cells): > 60 µM
IC50 (HepG2 cells): > 60 µM

IC50 [1, 4]: 0.469 µM
IC50 [2, 5]: 0.544 µM
SMILES: Cc1cc(NCCCCCCNc2ccnc3cc(Cl)ccc23)nc(Cl)n1 [10d]
P. falciparum (D6 Clone) S.I. [1]: 73.7
P. falciparum (W2 Clone) S.I. [2]: 27.2
IC50 (VERO cells): 34.6 µM
IC50 (LLC-PK-1 cells): 14.8 µM
IC50 (HepG2 cells): 9.3 µM

IC50 [1, 4]: 0.27 µM
IC50 [2, 5]: 0.91 µM
SMILES: Cc1cc(Cl)nc(NCCNc2ccnc3cc(Cl)ccc23)n1 [11a]
P. falciparum (D6 Clone) S.I. [1]: 159.2
P. falciparum (W2 Clone) S.I. [2]: 47.2
IC50 (VERO cells): 43 µM
IC50 (LLC-PK-1 cells): 41.6 µM
IC50 (HepG2 cells): 43 µM

IC50 [1, 4]: 0.27 µM
IC50 [2, 5]: 1.24 µM
SMILES: Cc1cc(Cl)nc(NCCCNc2ccnc3cc(Cl)ccc23)n1 [11b]
P. falciparum (D6 Clone) S.I. [1]: (>222)
P. falciparum (W2 Clone) S.I. [2]: (>48)
IC50 (VERO cells): > 60 µM
IC50 (LLC-PK-1 cells): > 60 µM
IC50 (HepG2 cells): > 60 µM

IC50 [1, 4]: 0.196 µM
IC50 [2, 5]: 0.664 µM
SMILES: Cc1cc(Cl)nc(NCCCCNc2ccnc3cc(Cl)ccc23)n1 [11c]
P. falciparum (D6 Clone) S.I. [1]: (>306)
P. falciparum (W2 Clone) S.I. [2]: (>90)
IC50 (VERO cells): > 60 µM
IC50 (LLC-PK-1 cells): > 60 µM
IC50 (HepG2 cells): 39.8 µM

IC50 [1, 4]: 0.165 µM
IC50 [2, 5]: 0.568 µM
SMILES: Cc1cc(Cl)nc(NCCCCCCNc2ccnc3cc(Cl)ccc23)n1 [11d]
P. falciparum (D6 Clone) S.I. [1]: 336.9
P. falciparum (W2 Clone) S.I. [2]: 97.8
IC50 (VERO cells): 55.6 µM
IC50 (LLC-PK-1 cells): 23.4 µM
IC50 (HepG2 cells): 8.1 µM

IC50 [1, 4]: 0.026 µM
IC50 [2, 5]: 0.211 µM
SMILES: Cc1cc(NCCCNc2ccnc3cc(Cl)ccc23)nc(N2CCCCC2)n1 [12b, N-(7-Chloro-quinolin-4-yl)-N′-(6-methyl-2-piperidin-1-yl-pyrimidin-4-yl)-propane-1,3-diamine]
P. falciparum (D6 Clone) S.I. [1]: (>2300)
P. falciparum (W2 Clone) S.I. [2]: (>284)
IC50 (VERO cells): > 60 µM
IC50 (LLC-PK-1 cells): > 60 µM
IC50 (HepG2 cells): > 60 µM

SOLUBILITY [3]: DMSO
SMILES: Clc1ccc2c(NCCCNc3cc(Cl)nc(Cl)n3)ccnc2c1 [SM 710A]

SOLUBILITY [3]: DMSO
SMILES: Clc1ccc2c(NCCCNc3nc(Cl)cc(Cl)n3)ccnc2c1 [SM 710B]

SOLUBILITY [3]: DMSO
SMILES: Clc1ccc2c(NCCCNc3ccnc(Cl)n3)ccnc2c1 [SM 719A]

SOLUBILITY [3]: DMSO
SMILES: Clc1ccc2c(NCCCNc3nccc(Cl)n3)ccnc2c1 [SM 719B]

SOLUBILITY [3]: DMSO
SMILES: Clc1ccc2c(NCCNc3ccnc(Cl)n3)ccnc2c1 [SM 728A]

SOLUBILITY [3]: DMSO
SMILES: Clc1ccc2c(NCCNc3nccc(Cl)n3)ccnc2c1 [SM 728B]

The next lines start with the molecule.

SMILES: C[C@@H]1CC[C@H]2[C@@H](C)C(=O)O[C@@H]3O[C@@]4(C)CC[C@@H]1[C@]32OO4 [Artemisinine, reference compound]
IC50 [1, 4]: 0.012 µM
P. falciparum (D6 Clone) S.I. [1]: 5000
IC50 [2, 5]: 0.012 µM
P. falciparum (W2 Clone) S.I. [2]: 5000

SMILES: CCN(CC)CCCC(C)Nc1ccnc2cc(Cl)ccc12 (stereo not drawn) [Chloroquine, chloroquine, reference compound]
IC50 ([1]; D6, read-out: P. falciparum (D6 Clone) IC50 (μM)): 0.048 µM
P. falciparum (D6 Clone) S.I. [1]: 1250
IC50 ([2]; W2, read-out: P. falciparum (W2 Clone) IC50 (μM)): 0.43 µM
P. falciparum (W2 Clone) S.I. [2]: 140
parasitemia suppression (parasitemia; day 5, 100 mg/kg for 3 days post infection, standard drug): 100%
Cure (number of mice without parasitemia till day 28 post-infection) (parasitemia; [6]): 0/5
MST (mean survival time) (parasitemia; [6]): 28 days
% Parasitemia suppression Day 5 (parasitemia; mice, PO, 100 mg/kg × 3 days post-infection, day 5): 100.00%
% Parasitemia suppression Day 7 (parasitemia; mice, PO, 100 mg/kg × 3 days post-infection, day 7): 100.00%
Survival (animals that survived day 28/total animals in group) (parasitemia; mice, PO, 100 mg/kg × 3 days post-infection, day 28): 5/5
Day of Death (parasitemia; mice, PO, 100 mg/kg × 3 days post-infection, per animal): 28/28/28/28/28

SMILES: COc1cccc2c1C(=O)c1c(O)c3c(c(O)c1C2=O)C[C@@](O)(C(=O)CO)C[C@@H]3O[C@H]1C[C@H](N)[C@H](O)[C@H](C)O1 [Doxorubicin]
IC50 (VERO cells): 8.2 µM
IC50 (LLC-PK-1 cells): 1 µM
IC50 (HepG2 cells): < 1 µM

SMILES: Clc1ccc2c(NCCNc3nc(Cl)cc(N4CCCCC4)n3)ccnc2c1 [SM 699]
SOLUBILITY [3]: DMSO

SMILES: Clc1ccc2c(NCCNc3nc(Cl)cc(N4CCOCC4)n3)ccnc2c1 [SM 700]
SOLUBILITY [3]: DMSO

SMILES: CN1CCN(c2nc(Cl)cc(NCCNc3ccnc4cc(Cl)ccc34)n2)CC1 [SM 701]
SOLUBILITY [3]: DMSO

SMILES: CCN1CCN(c2nc(Cl)cc(NCCNc3ccnc4cc(Cl)ccc34)n2)CC1 [SM 702]
SOLUBILITY [3]: DMSO

SMILES: CN1CCN(c2cc(Cl)nc(NCCNc3ccnc4cc(Cl)ccc34)n2)CC1 [SM 703]
SOLUBILITY [3]: DMSO

SMILES: CCN1CCN(c2cc(Cl)nc(NCCNc3ccnc4cc(Cl)ccc34)n2)CC1 [SM 704]
SOLUBILITY [3]: DMSO

SMILES: Clc1ccc2c(NCCCNc3cc(Cl)nc(N4CCCCC4)n3)ccnc2c1 [SM 711]
SOLUBILITY [3]: DMSO

SMILES: Clc1ccc2c(NCCCNc3cc(Cl)nc(N4CCOCC4)n3)ccnc2c1 [SM 712]
SOLUBILITY [3]: DMSO

SMILES: CN1CCN(c2nc(Cl)cc(NCCCNc3ccnc4cc(Cl)ccc34)n2)CC1 [SM 713]
SOLUBILITY [3]: DMSO

SMILES: CCN1CCN(c2nc(Cl)cc(NCCCNc3ccnc4cc(Cl)ccc34)n2)CC1 [SM 714]
SOLUBILITY [3]: DMSO

SMILES: Clc1ccc2c(NCCCNc3nc(Cl)cc(N4CCCCC4)n3)ccnc2c1 [SM 715]
SOLUBILITY [3]: DMSO

SMILES: Clc1ccc2c(NCCCNc3nc(Cl)cc(N4CCOCC4)n3)ccnc2c1 [SM 716]
SOLUBILITY [3]: DMSO

SMILES: CN1CCN(c2cc(Cl)nc(NCCCNc3ccnc4cc(Cl)ccc34)n2)CC1 [SM 717]
SOLUBILITY [3]: DMSO

SMILES: CCN1CCN(c2cc(Cl)nc(NCCCNc3ccnc4cc(Cl)ccc34)n2)CC1 [SM 718]
SOLUBILITY [3]: DMSO

SMILES: Clc1ccc2c(NCCCNc3ccnc(N4CCCCC4)n3)ccnc2c1 [SM 720]
SOLUBILITY [3]: DMSO

SMILES: Clc1ccc2c(NCCCNc3ccnc(N4CCOCC4)n3)ccnc2c1 [SM 721]
SOLUBILITY [3]: DMSO

SMILES: CN1CCN(c2nccc(NCCCNc3ccnc4cc(Cl)ccc34)n2)CC1 [SM 722]
SOLUBILITY [3]: DMSO

SMILES: CCN1CCN(c2nccc(NCCCNc3ccnc4cc(Cl)ccc34)n2)CC1 [SM 723]
SOLUBILITY [3]: DMSO

SMILES: Clc1ccc2c(NCCCNc3nccc(N4CCCCC4)n3)ccnc2c1 [SM 724]
SOLUBILITY [3]: DMSO

SMILES: Clc1ccc2c(NCCCNc3nccc(N4CCOCC4)n3)ccnc2c1 [SM 725]
SOLUBILITY [3]: DMSO

SMILES: CN1CCN(c2ccnc(NCCCNc3ccnc4cc(Cl)ccc34)n2)CC1 [SM 726]
SOLUBILITY [3]: DMSO

SMILES: CCN1CCN(c2ccnc(NCCCNc3ccnc4cc(Cl)ccc34)n2)CC1 [SM 727]
SOLUBILITY [3]: DMSO

SMILES: Clc1ccc2c(NCCNc3ccnc(N4CCCCC4)n3)ccnc2c1 [SM 730]
SOLUBILITY [3]: DMSO

SMILES: Clc1ccc2c(NCCNc3ccnc(N4CCOCC4)n3)ccnc2c1 [SM 731]
SOLUBILITY [3]: DMSO

SMILES: Clc1ccc2c(NCCNc3nccc(N4CCCCC4)n3)ccnc2c1 [SM 732]
SOLUBILITY [3]: DMSO

SMILES: Clc1ccc2c(NCCNc3nccc(N4CCOCC4)n3)ccnc2c1 [SM 733]
SOLUBILITY [3]: DMSO

SMILES: CN1CCN(c2ccnc(NCCNc3ccnc4cc(Cl)ccc34)n2)CC1 [SM 734]
SOLUBILITY [3]: DMSO
